Test results published in PubChem BioAssay (NCI).
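Interpolation was linear, between the two tested concentrations surrounding the appropriate level; five concentrations were tested over 48 hours in 96-well plates. GI50 is the concentration that inhibits growth by half. TGI: total growth inhibition.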

Columns and labels:
Test in all cases: growth of human tumour cells (NCI), 48 h
786-0 renal = tested on: 786-0 renal
A498 renal = tested on: A498 renal
A549 NSCLC = tested on: A549 NSCLC
ACHN renal = tested on: ACHN renal
BT-549 breast = tested on: BT-549 breast
CAKI-1 renal = tested on: CAKI-1 renal
CCRF-CEM leukemia = tested on: CCRF-CEM leukemia
COLO 205 colon = tested on: COLO 205 colon
DU-145 prostate = tested on: DU-145 prostate
EKVX NSCLC = tested on: EKVX NSCLC
HCC-2998 colon = tested on: HCC-2998 colon
HCT-116 colon = tested on: HCT-116 colon
HCT-15 colon = tested on: HCT-15 colon
HL-60(TB) leukemia = tested on: HL-60(TB) leukemia
HOP-62 NSCLC = tested on: HOP-62 NSCLC
HOP-92 NSCLC = tested on: HOP-92 NSCLC
HS 578T breast = tested on: HS 578T breast
HT29 colon = tested on: HT29 colon
IGROV1 ovarian = tested on: IGROV1 ovarian
K-562 leukemia = tested on: K-562 leukemia
KM12 colon = tested on: KM12 colon
LOX IMVI melanoma = tested on: LOX IMVI melanoma
M14 melanoma = tested on: M14 melanoma
MALME-3M melanoma = tested on: MALME-3M melanoma
MCF7 breast = tested on: MCF7 breast
MDA-MB-231 breast = tested on: MDA-MB-231 breast
MDA-MB-435 = tested on: MDA-MB-435
MOLT-4 leukemia = tested on: MOLT-4 leukemia

CC(=O)O[C@@H]1C2=C(C)C3(CC3)[C@@](C)(O)C(=O)C2=C[C@@]1(C)CO
GI50 (786-0 renal): 2.04 µM
TGI (786-0 renal): 6.1 µM
GI50 (A498 renal): 1.8 µM
TGI (A498 renal): 3.53 µM
GI50 (A549 NSCLC): 1.05 µM
TGI (A549 NSCLC): 24.2 µM
GI50 (ACHN renal): 0.484 µM
TGI (ACHN renal): 2.33 µM
GI50 (BT-549 breast): 0.509 µM
TGI (BT-549 breast): 2.79 µM
GI50 (CAKI-1 renal): 1.5 µM
TGI (CAKI-1 renal): 13.3 µM
GI50 (CCRF-CEM leukemia): 0.475 µM
TGI (CCRF-CEM leukemia): > 22.5 µM
GI50 (COLO 205 colon): 1.22 µM
TGI (COLO 205 colon): 3.73 µM
GI50 (DU-145 prostate): 0.342 µM
TGI (DU-145 prostate): 3.14 µM
GI50 (EKVX NSCLC): 2.66 µM
TGI (EKVX NSCLC): 7.56 µM
GI50 (HCC-2998 colon): 0.496 µM
TGI (HCC-2998 colon): 1.89 µM
GI50 (HCT-116 colon): 0.424 µM
TGI (HCT-116 colon): > 100 µM
GI50 (HCT-15 colon): 0.423 µM
TGI (HCT-15 colon): 10.1 µM
GI50 (HL-60(TB) leukemia): 0.414 µM
TGI (HL-60(TB) leukemia): > 22.5 µM
GI50 (HOP-62 NSCLC): 0.474 µM
TGI (HOP-62 NSCLC): 4.52 µM
GI50 (HOP-92 NSCLC): 1.87 µM
TGI (HOP-92 NSCLC): 5.75 µM
GI50 (HS 578T breast): 1.68 µM
TGI (HS 578T breast): 5.75 µM
GI50 (HT29 colon): 0.322 µM
TGI (HT29 colon): > 100 µM
GI50 (IGROV1 ovarian): 0.598 µM
TGI (IGROV1 ovarian): 5.08 µM
GI50 (K-562 leukemia): 0.482 µM
TGI (K-562 leukemia): > 100 µM
GI50 (KM12 colon): 1.32 µM
TGI (KM12 colon): 8.59 µM
GI50 (LOX IMVI melanoma): 1.04 µM
TGI (LOX IMVI melanoma): 4.44 µM
GI50 (M14 melanoma): 0.34 µM
TGI (M14 melanoma): 1.61 µM
GI50 (MALME-3M melanoma): 0.893 µM
TGI (MALME-3M melanoma): 2.5 µM
GI50 (MCF7 breast): 0.371 µM
TGI (MCF7 breast): 3.28 µM
GI50 (MDA-MB-231 breast): 1.8 µM
TGI (MDA-MB-231 breast): 8.92 µM
GI50 (MDA-MB-435): 0.48 µM
TGI (MDA-MB-435): 1.72 µM
GI50 (MOLT-4 leukemia): 1.53 µM
TGI (MOLT-4 leukemia): > 100 µM
